Laboratory results from US20250171516A1, “PEPTIDE ACIDS AS A GLP1R AGONIST AND ANTIBODY-DRUG CONJUGATES THEREOF” (Regeneron Pharmaceuticals, Inc., priority 2023, published 2025).
Starred links: 1 amine or outer side, 2 acyl side, 3 side chain; linkers in the order of their positions; H or OH if unused. Non-standard residues stand in square brackets, D forms with d. Residues, ends and D or L forms follow the SMILES beside them. Groups on a side chain read outwards from the residue. No end group written: not given here. *: point of attachment. X2 = CCc1cc(OCCCCn2cc(COCCOCCOCCOCCOCCOCCOCCOCCN[*:3])nn2)ccc1-c1ccc(C[C@H](N[*:1])C(=O)[*:2])cc1; Malonyl(2,2-Me2,histaminyl) = CC(C)(C(=O)NCCc1cnc[nH]1)C(=O)*; Nva(5-(3,5-Me2Ph)) = Cc1cc(C)cc(CCC[C@H](N)C(=O)O)c1; Ala(1H-tetrazol-5-yl) = N[C@@H](Cc1nnn[nH]1)C(=O)O; αMePhe(2-F) = C[C@](N)(Cc1ccccc1F)C(=O)O; γGlu = O=C(O)[C@H](CCC(=O)[*:2])N[*:1]; AA10 = not defined here; AA1 = not defined here; AA2 = not defined here; AA6 = not defined here; AA9 = not defined here

Experiments:
[1] = Metabolite study in human liver S9 (high resolution LC-MS); assay type: in vitro ADME; conditions: metabolites of Q-M6009 at 4 hours in human liver S9
Method: Metabolite studies were conducted using Q-M3190 and Q-6009 (Q is Glutamine).
Liver S9 is the supernatant obtained by grinding and centrifuging the liver cells. The enzymes content is lower compared to Hepatocytes. It mainly contains CYP enzymes and some biphasic enzymes (but no biphasic coenzyme), so additional coenzyme (NADPH and UDPGA, etc.) is needed to mediate the biphasic reaction.

GLP-1R [2] = molecular target: T1, GLP-1R (Homo sapiens, UniProt P43220); assay: GLP-1R cAMP assay of peptides (Tables 10, 14, 15); assay type: cell-based
GLP-1R [3] = molecular target: T1, GLP-1R; assay: CRE-Luc cAMP responsive luciferase reporter assay in HEK293/CRE-Luc/hGLP1R cells; assay type: cell-based; parameters: engineered to express full-length human GLP1R (GenBank: AAI12127.1) (HEK293/CRE-Luc/hGLP1R); expressed in transfected cells; host or cells: HEK293/CRE-Luc (HEK293/FSC11/pCDNA3.1 + GLP1R, ACL6822)
From the text: To test the activity of GLP1R agonist linker-payloads (LPs) and anti-GLP1R antibody-tethered ligands (ATLs) of the invention, a cell-based cAMP responsive luciferase reporter assay was developed. To generate the assay cell line, the firefly luciferase gene was placed under the control of four copies of a cAMP response element (4×CRE) located upstream of a minimal promoter and transfected into HEK293 cells and referred to herein as HEK293/CRE-Luc cells. HEK293/CRE-Luc cells were then engineered to express full-length human GLP1R (GenBank: AAI12127.1) (HEK293/CRE-Luc/hGLP1R).
(§1) For all assays, cells were seeded into 384-well plates (Falcon #353988) at 6,000 cells/well in assay media (Opti-MEM, 1% FBS, 1×Penicillin-Streptomycin) and incubated overnight at 37° C. Serial dilutions of the anti-GLP1R ATLs and non-binding control ATLs were performed in assay media. Serial dilutions of linker-payloads (LPs) were performed in 100% DMSO (ATCC, #4-X-5), followed by 1:100 dilution in assay media. Test articles were added to cells (1:5 dilution) using VIAFLO 384 (Integra) with the last well in each serial dilution series serving as a blank control containing only assay media for ATLs or assay media with 0.2% DMSO for LPs. The blank was plotted as a continuation of the serial dilution.
For the CRE-Luc assay, after a 5-hours incubation at 37° C., luciferase activity was determined by addition of ONE-Glo reagent (Promega, #E6130) followed by measurement of relative light units (RLUs) on EnVision Plate Reader (Perkin Elmer).
(§2) EC50 values for luminescence assays were determined using a four-parameter logistic equation over a 12-point dose response curve (GraphPad Prism).

GLP-1R [4] = molecular target: T1, GLP-1R; assay: b-arrestin 2 recruitment enzyme fragment complementation assay in HEK293/b-arrestin2/hGLP1R cells; assay type: cell-based; parameters: The full-length human GLP1R (NP_002053.3) with a C-terminus fusion to a small b-gal fragment called enzyme donor or ProLink (PK); host or cells: HEK293/b-arrestin2-EA (HEK293/Barrestin clone 2C6/hGLP1R-Prolink1 high sorted, ACL21687)
From the text: To test the recruitment of b-arrestin 1 and b-arrestin 2 to GLP1R upon receptor activation, two enzyme fragment complementation assays were developed. To generate the assay cell lines, b-arrestin 1 fused to the b-galactosidase (b-gal) reporter fragment called enzyme acceptor (EA) (i.e., b-arrestin1-EA) or b-arrestin 2 fused to the b-gal reporter fragment EA (i.e., b-arrestin2-EA) were transduced into HEK293 cells using PathHunter b-Arrestinl Retroparticles (DiscoverX, #83-OT-TB-N-01) or PathHunter b-Arrestin2 Retroparticles (DiscoverX, #93-1087), respectively. The full-length human GLP1R (NP_002053.3) with a C-terminus fusion to a small b-gal fragment called enzyme donor or ProLink (PK) (i.e., hGLP1R-PK) was then engineered into HEK293/b-arrestinl-EA cells and HEK293/b-arrestin2-EA cells to generate the cell lines referred herein as HEK293/b-arrestin1/hGLP1R and HEK293/b-arrestin2/hGLP1R. Recruitment of b-arrestin 1 or b-arrestin 2 to GLP1R in these reporter cell lines brings both b-gal fragments (EA and PK) into close proximity, leading to reconstitution of a fully functional enzyme capable of hydrolyzing a substrate and generating a chemiluminescent signal.
as §1
For b-arrestin 1 and b-arrestin 2 recruitment assays, after a 1-hour incubation at 37° C., PathHunter Detection Reagent (Eurofins DiscoverX, #93-0001) was added to the wells followed by a 1-hour incubation at room temperature. RLUs were measured on EnVision Plate Reader (Perkin Elmer).
as §2

[5] = molecular target: GLP-1R of the cAMP assay of Tables 10, 14 and 15 (human, UniProt P43220 24-463, limits assumed); assay: cell-based or functional assay
[6] = Table 15, peptide acids, read-out: cAMP EC50
[7] = Table 10, read-out: GLP-1R CAMP EC50

T1 sequence (P43220 24-463): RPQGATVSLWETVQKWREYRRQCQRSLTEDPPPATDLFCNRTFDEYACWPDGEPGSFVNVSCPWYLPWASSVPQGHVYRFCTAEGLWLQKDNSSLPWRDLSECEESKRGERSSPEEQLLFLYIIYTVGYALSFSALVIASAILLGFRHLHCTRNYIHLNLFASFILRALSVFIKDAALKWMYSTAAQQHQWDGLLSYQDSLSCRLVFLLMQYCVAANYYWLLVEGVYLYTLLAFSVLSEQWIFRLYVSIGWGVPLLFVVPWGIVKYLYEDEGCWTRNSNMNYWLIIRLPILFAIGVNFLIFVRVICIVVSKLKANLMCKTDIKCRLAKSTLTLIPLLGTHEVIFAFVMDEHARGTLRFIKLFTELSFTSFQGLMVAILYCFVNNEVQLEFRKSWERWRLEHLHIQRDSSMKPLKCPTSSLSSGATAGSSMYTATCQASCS

## C[C@@H](O)[C@H](NC(=O)CNC(=O)[C@H](Cc1nn[nH]n1)NC(=O)C(C)(C)C(=O)NCCc1cnc[nH]1)C(=O)N[C@@](C)(Cc1ccccc1F)C(=O)N[C@H](C(=O)N[C@@H](CO)C(=O)N[C@@H](CC(=O)O)C(=O)O)[C@@H](C)O [AA10-AA(-AA8-AA7-AA6-AA5-AA4-AA3]
[1]
  Relative Abundance (% Total): 0.21 % Total

## CCc1cc(OCCCCn2cc(COCCOCCOCCOCCOCCOCCOCCOCCNC(=O)CC[C@H](NC(=O)[C@H](CC(C)C)NC(=O)[C@@H](N)CC(C)C)C(=O)O)nn2)ccc1-c1ccc(C[C@H](NC(=O)[C@H](CC(=O)O)NC(=O)[C@H](CO)NC(=O)[C@@H](NC(=O)[C@](C)(Cc2ccccc2F)NC(=O)[C@@H](NC(=O)CNC(=O)[C@H](Cc2nnn[nH]2)NC(=O)C(C)(C)C(=O)NCCc2cnc[nH]2)[C@@H](C)O)[C@@H](C)O)C(=O)N[C@@H](CCCc2cc(C)cc(C)c2)C(N)=O)cc1 [M6296] ({Malonyl(2,2-Me2,histaminyl)}-[Ala(1H-tetrazol-5-yl)]GT[αMePhe(2-F)]TSD[X2]([γGlu-Leu-Leu])[Nva(5-(3,5-Me2Ph))]-NH2)
GLP-1R [2]; Table 14, peptide amides, read-out: cAMP EC50
  EC50: 1.19 nM

## CCc1cc(OCCCCn2cc(COCCOCCOCCOCCOCCOCCOCCOCCNC(=O)CC[C@H](NC(=O)[C@H](CC(C)C)NC(=O)[C@@H](N)CC(C)C)C(=O)O)nn2)ccc1-c1ccc(C[C@H](NC(=O)[C@H](CC(=O)O)NC(=O)[C@H](CO)NC(=O)[C@@H](NC(=O)[C@](C)(Cc2ccccc2F)NC(=O)[C@@H](NC(=O)CNC(=O)[C@H](Cc2nnn[nH]2)NC(=O)C(C)(C)C(=O)NCCc2cnc[nH]2)[C@@H](C)O)[C@@H](C)O)C(=O)N[C@@H](CCCc2cc(C)cc(C)c2)C(=O)O)cc1 [M6297] ({Malonyl(2,2-Me2,histaminyl)}-[Ala(1H-tetrazol-5-yl)]GT[αMePhe(2-F)]TSD[X2]([γGlu-Leu-Leu])[Nva(5-(3,5-Me2Ph))]-OH)
GLP-1R [2]
  EC50: 13.4 nM
GLP-1R [2]; Table 10
  GLP-1R CAMP Max: 103.80%

## CCc1cc(OCCCCN=[N+]=[N-])ccc1-c1ccc(C[C@H](NC(=O)[C@H](CC(=O)O)NC(=O)[C@H](CO)NC(=O)[C@@H](NC(=O)[C@](C)(Cc2ccccc2F)NC(=O)[C@@H](NC(=O)CNC(=O)[C@H](Cc2nn[nH]n2)NC(=O)C(C)(C)C(=O)NCCc2cnc[nH]2)[C@@H](C)O)[C@@H](C)O)C(=O)O)cc1 [M6320]
GLP-1R [2]; [6]
  EC50: 51.2 nM

## CCc1cc(OCCCCn2cc(COCCOCCOCCOCCOCCOCCOCCOCCNC(=O)CC[C@H](NC(=O)[C@H](CC(C)C)NC(=O)[C@@H](N)CC(C)C)C(=O)O)nn2)ccc1-c1ccc(C[C@H](NC(=O)[C@H](CC(=O)O)NC(=O)[C@H](CO)NC(=O)[C@@H](NC(=O)C(C)(Cc2ccccc2F)NC(=O)[C@@H](NC(=O)CNC(=O)[C@H](Cc2nn[nH]n2)NC(=O)C(C)(C)C(=O)NCCc2cnc[nH]2)[C@@H](C)O)[C@@H](C)O)C(=O)O)cc1 (some centres unmarked) [M6321]
GLP-1R [2]; Table 10
  GLP-1R CAMP Max: 33.86%
GLP-1R [2]; [7]
  EC50: > 1000 nM
GLP-1R [2]; [6]
  EC50: > 1000 nM

## CCc1cc(OCCCCn2cc(COCCOCCOCCOCCOCCOCCOCCOCCNC(=O)CC[C@H](N)C(=O)O)nn2)ccc1-c1ccc(C[C@H](NC(=O)[C@H](CC(=O)O)NC(=O)[C@H](CO)NC(=O)[C@@H](NC(=O)C(C)(Cc2ccccc2F)NC(=O)[C@@H](NC(=O)CNC(=O)[C@H](Cc2nn[nH]n2)NC(=O)C(C)(C)C(=O)NCCc2cnc[nH]2)[C@@H](C)O)[C@@H](C)O)C(=O)O)cc1 (some centres unmarked) [M6322]
GLP-1R [2]; Table 10
  GLP-1R CAMP Max: 29.24%
GLP-1R [2]; [7]
  EC50: > 1000 nM
GLP-1R [2]; [6]
  EC50: > 1000 nM

## Cc1cc(OCCOCCOCCOCCOCCOCCOCCOCCN)ccc1-c1ccc(C[C@H](NC(=O)[C@H](CC(=O)O)NC(=O)[C@H](CO)NC(=O)[C@@H](NC(=O)C(C)(Cc2ccccc2F)NC(=O)[C@@H](NC(=O)CNC(=O)[C@H](Cc2nnn[nH]2)NC(=O)C(C)(C)C(=O)NCCc2cnc[nH]2)[C@@H](C)O)[C@@H](C)O)C(=O)O)cc1 (some centres unmarked) [M6447]
GLP-1R [3]
  EC50: > 1000 nM
GLP-1R [3]; HEK293, read-out: Emax (% GLP-1), CRE-dependent reporter activity, HEK293/CRE-Luc/hGLP1R
  Emax: 9.8%
GLP-1R [3]; HEK293/CRE-Luc/hGLP1R cells
  CRE-dependent luciferase reporter activity (in words): very weak activator of CRE-dependent luciferase reporter activity
GLP-1R [4]; HEK293, read-out: Emax (% GLP-1), b-Arrestin2 recruitment, HEK293/b-arrestin2/hGLP1R
  Emax: 0.3%
GLP-1R [4]; HEK293/b-arrestin2/hGLP1R cells
  b-arrestin 2 recruitment (in words): recruited very low levels of b-arrestin 2
GLP-1R [4]; HEK293/b-arrestin2/hGLP1R cells, independent experiments A, B, read-out: EC50 (M), b-Arrestin2 recruitment, HEK293/b-arrestin2/hGLP1R
  EC50: > 1e-06 M

B1: AA10-AA9-AA8-AA7-AA6-AA5-AA4-AA3-(LLQ-L)AA2-OH (peptide)
peptide: [AA10][AA9]GT[AA6]TSD[AA2]([Leu-Gln-Leu-Leu])-OH
modifications: reading uncertain; also: printed as AA10-AA9-AA8-AA7-AA6-AA5-AA4-AA3-(LLQ-L)AA2-OH
[5]
  GLP-1R CAMP EC50: > 1000 nM
  GLP-1R CAMP Max (%): 33.9%

B2: Q-M6009 (AA10-AA9-AA8-AA7-AA6-AA5-AA4-AA3-(Q-L)AA2-AA1-OH) (peptide)
peptide: XXGTXTSDXX-OH
modifications: not fully specified (residues 1, 2, 5, 9, 10); printed as Q-M6009 (AA10-AA9-AA8-AA7-AA6-AA5-AA4-AA3-(Q-L)AA2-AA1-OH)
[5]
  GLP-1R CAMP EC50: 3.21 nM
  GLP-1R CAMP Max (%): 106%

B3: AA10-AA9-AA8-AA7-AA6-AA5-AA4-AA3-(Q-L)AA2-OH (peptide)
peptide: [AA10][AA9]GT[AA6]TSD[AA2]([Leu-Gln])-OH
modifications: reading uncertain; also: printed as AA10-AA9-AA8-AA7-AA6-AA5-AA4-AA3-(Q-L)AA2-OH
[5]
  GLP-1R CAMP EC50: > 1000 nM
  GLP-1R CAMP Max (%): 29.2%

B4: AA10-AA9-AA8-AA7-AA6-AA5-AA4-AA3-AA2-OH (peptide)
peptide: [AA10][AA9]GT[AA6]TSDX-OH
modifications: not fully specified (residue 9); printed as AA10-AA9-AA8-AA7-AA6-AA5-AA4-AA3-AA2-OH
[5]
  GLP-1R CAMP EC50: 51.2 nM
  GLP-1R CAMP Max (%): 97.9%

B5: LLQ-M6009 (AA10-AA9-AA8-AA7-AA6-AA5-AA4-AA3-(LLQ-L)AA2-AA1-OH) (peptide)
peptide: [AA10][AA9]GT[AA6]TSD[AA2]([Leu-Gln-Leu-Leu])[AA1]-OH
modifications: reading uncertain; also: printed as LLQ-M6009 (AA10-AA9-AA8-AA7-AA6-AA5-AA4-AA3-(LLQ-L)AA2-AA1-OH)
[5]
  GLP-1R CAMP EC50: 13.4 nM
  GLP-1R CAMP Max (%): 104%

B6: AA10-AA9-AA8-AA7-AA6-AA5-AA4-AA3-AA2-AA1-OH (peptide)
peptide: [AA10][AA9]GT[AA6]TXD[AA2][AA1]-OH
modifications: not fully specified (residue 7); printed as AA10-AA9-AA8-AA7-AA6-AA5-AA4-AA3-AA2-AA1-OH; also: AA2 azidobutoxy
[5]
  GLP-1R CAMP EC50: 2.94 nM
  GLP-1R CAMP Max (%): 122%
